Test results as given in patent US9814699B2, “Chemical compounds” (Janssen Pharmaceuticals, Inc., priority 2009, dated 2017).

Experiments:
[1] = system: HCV genotype 1b subgenomic replicon; experiment: HCV replicon assay, genotype 1b subgenomic replicon (ET cell line, luciferase); assay type: cell-based; settings: Hepatitis C virus; genotype 1b replicon ET cell line, luciferase activity measured 48 hours later; read-out: Replicon 1B pEC50 (converted)
Procedure: (§1) Protocol for Testing and Data Analysis of Compounds in the HCV Replicon Assay
(§2) Compounds were assayed for activity against HCV using the genotype 1a and 1b subgenomic replicon model systems. Stable cell lines bearing the genotype 1a and 1b replicons were used for screening of compounds. Both replicons are bicistronic and contain the firefly luciferase gene. The ET cell line is stably transfected with RNA transcripts harboring a I389luc-ubi-neo/NS3-3′/ET replicon with firefly luciferase-ubiquitin-neomycin phosphotransferase fusion protein and EMCV-IRES driven NS3-5B polyprotein containing the cell culture adaptive mutations (E1202G; T1280I; K1846T) (Krieger at al, 2001 and unpublished). The genotype 1a replicon is a stable cell line licensed from Apath LLC, modified to contain the firefly luciferase gene. The cells were grown in DMEM, supplemented with 10% fetal calf serum, 2 mM Glutamine, Penicillin (100 IU/mL)/Streptomycin (100 μg/mL), 1× nonessential amino acids, and 250-500 μg/mL G418 (“Geneticin”). They were all available through Life Technologies (Bethesda, Md.). The cells were plated at 5×10^3 cells/well in 384 well plates containing compounds. The final concentration of compounds ranged between 0.03 pM to 50 μm and the final DMSO concentration of 0.5-1%.
(§3) Luciferase activity was measured 48 hours later by adding a Steady glo reagent (Promega, Madison, Wis.). Percent inhibition of replication data was plotted relative to no compound control. Under the same condition, cytotoxicity of the compounds was determined using cell titer glo (Promega, Madison, Ws). EC50s were determined from an 11 point dose response curve using 3-4-fold serial dilution for each compound, which spans a concentration range >1000 fold. The level of inhibition for each compound was determined with Activity Base or with BioAssay plus the Excel XC50 module. Percent inhibition was determined with the following equation where the cross-talk corrected value is the value from the test well, the compound positive control mean is the average value of the wells with no compound present, and the DMSO negative control mean is the average value of the wells with DMSO but no cells present.
(§4) [formula] These normalized values are exported to EC50 where they are plotted against the molar compound concentrations using the standard four parameter logistic equation: […]

[2] = system: HCV genotype 1a subgenomic replicon; experiment: HCV replicon assay, genotype 1a subgenomic replicon (luciferase); assay type: cell-based; settings: Hepatitis C virus; genotype 1a replicon stable cell line, luciferase activity measured 48 hours later; read-out: Replicon 1A pEC50 (converted)
Procedure: as §1, §2, §3, §4

Structure (SMILES) | EC50 [1] [nM] | EC50 [2] [nM]
COC(=O)N[C@H](C(=O)N1CC2(CNC2)CC1c1ncc(-c2ccc(-c3ccc(-c4cnc([C@@H]5CCCN5C(=O)[C@@H](NC(=O)OC)C(C)C)[nH]4)cc3)cc2)[nH]1)C(C)C (stereo partly drawn) [Example 24, methyl [(1S)-2-methyl-1-({(2S)-2-[4-(4′-{2-[6-((2S)-3-methyl-2-{[(methyloxy)carbonyl]amino}butanoyl)-2,6-diazaspiro[3.4]oct-7-yl]-1H-imidazol-4-yl}-4-biphenylyl)-1H-imidazol-2-yl]-1-pyrrolidinyl}carbonyl)propyl]carbamate] | 0.126 | 3.16
COC(=O)N[C@H](C(=O)N1CC2(CC1c1ncc(-c3ccc(-c4ccc(-c5cnc([C@@H]6CCCN6C(=O)[C@@H](NC(=O)OC)C(C)C)[nH]5)cc4)cc3)[nH]1)CN(C(C)=O)C2)C(C)C (stereo partly drawn) [Example 25, methyl [(1S)-1-({(2S)-2-[4-(4′-{2-[2-acetyl-6-((2S)-3-methyl-2-{[(methyloxy)carbonyl]amino}butanoyl)-2,6-diazaspiro[3.4]oct-7-yl]-1H-imidazol-4-yl}-4-biphenylyl)-1H-imidazol-2-yl]-1-pyrrolidinyl}carbonyl)-2-methylpropyl]carbamate] | 0.158 | 1.26
COC(=O)N[C@H](C(=O)N1CC2(CC1c1ncc(-c3ccc(-c4ccc(-c5cnc([C@@H]6CCCN6C(=O)[C@@H](NC(=O)OC)C(C)C)[nH]5)cc4)cc3)[nH]1)CN(C(=O)OC)C2)C(C)C (stereo partly drawn) [Example 26, methyl 6-{N-[(methyloxy)carbonyl]-L-valyl}-7-(4-{4′-[2-((2S)-{N-[(methyloxy)carbonyl]-L-valyl}-2-pyrrolidinyl)-1H-imidazol-4-yl]-4-biphenylyl}-1H-imidazol-2-yl)-2,6-diazaspiro[3.4]octane-2-carboxylate] | 0.0501 | 2
CNC(=O)N1CC2(CC(c3ncc(-c4ccc(-c5ccc(-c6cnc([C@@H]7CCCN7C(=O)[C@@H](NC(=O)OC)C(C)C)[nH]6)cc5)cc4)[nH]3)N(C(=O)[C@@H](NC(=O)OC)C(C)C)C2)C1 (stereo partly drawn) [Example 27, methyl [(1S)-2-methyl-1-({(2S)-2-[4-(4′-{2-[2-[(methylamino)carbonyl]-6-((2S)-3-methyl-2-{[(methyloxy)carbonyl]amino}butanoyl)-2,6-diazaspiro[3.4]oct-7-yl]-1H-imidazol-4-yl}-4-biphenylyl)-1H-imidazol-2-yl]-1-pyrrolidinyl}carbonyl)propyl]carbamate] | 0.251 | 6.31
COC(=O)N[C@H](C(=O)N1CC2(CC1c1ncc(-c3ccc(-c4ccc(-c5cnc([C@@H]6CCCN6C(=O)[C@@H](NC(=O)OC)C(C)C)[nH]5)cc4)cc3)[nH]1)CN(S(C)(=O)=O)C2)C(C)C (stereo partly drawn) [Example 28, methyl [(1S)-2-methyl-1-({(2S)-2-[4-(4′-{2-[6-((2S)-3-methyl-2-{[(methyloxy)carbonyl]amino}butanoyl)-2-(methylsulfonyl)-2,6-diazaspiro[3.4]oct-7-yl]-1H-imidazol-4-yl}-4-biphenylyl)-1H-imidazol-2-yl]-1-pyrrolidinyl}carbonyl)propyl]carbamate] | 0.0501 | 1.58
COC(=O)N[C@H](C(=O)N1CCC[C@H]1c1ncc(-c2ccc(-c3ccc(-c4cnc([C@@H]5CC6(CN5C(=O)[C@@H](NC(=O)OC)C(C)C)CC(F)(F)C6)[nH]4)cc3)cc2)[nH]1)C(C)C [Example 29, methyl [(1S)-1-({(2S)-2-[4-(4′-{2-[(7S)-2,2-difluoro-6-((2S)-3-methyl-2-{[(methyloxy)carbonyl]amino}butanoyl)-6-azaspiro[3.4]oct-7-yl]-1H-imidazol-4-yl}-4-biphenylyl)-1H-imidazol-2-yl]-1-pyrrolidinyl}carbonyl)-2-methylpropyl]carbamate] | 0.00316 | 0.1
COC(=O)N[C@H](C(=O)N1CCC[C@H]1c1ncc(-c2ccc(-c3ccc(-c4cnc(C5CCC6(CCOCC6)N5C(=O)[C@@H](NC(=O)OC)C(C)C)[nH]4)cc3)cc2)[nH]1)C(C)C (stereo partly drawn) [Example 30, methyl [(1S)-2-methyl-1-({(2S)-2-[4-(4′-{2-[1-((2S)-3-methyl-2-{[(methyloxy)carbonyl]amino}butanoyl)-8-oxa-1-azaspiro[4.5]dec-2-yl]-1H-imidazol-4-yl}-4-biphenylyl)-1H-imidazol-2-yl]-1-pyrrolidinyl}carbonyl)propyl]carbamate] | 0.0631 | 1.58
COC(=O)N[C@H](C(=O)N1CCC[C@H]1c1ncc(-c2ccc(-c3ccc(-c4cnc(C5CCC6(CCOCC6)N5C(C)=O)[nH]4)cc3)cc2)[nH]1)C(C)C (stereo partly drawn) [Example 31, methyl ((1S)-1-{[(2S)-2-(4-{4′-[2-(1-acetyl-8-oxa-1-azaspiro[4.5]dec-2-yl)-1H-imidazol-4-yl]-4-biphenylyl}-1H-imidazol-2-yl)-1-pyrrolidinyl}carbonyl]-2-methylpropyl)carbamate] | 0.0126 | 0.316
COC(=O)N[C@H](C(=O)N1CCC[C@H]1c1ncc(-c2ccc(-c3ccc(-c4c[nH]c(C5CCC6(CCC(F)(F)CC6)N5C(=O)[C@@H](NC(=O)OC)C(C)C)n4)cc3)cc2)[nH]1)C(C)C (stereo partly drawn) [Example 32, methyl [(1S)-1-({(2S)-2-[4-(4′-{2-[8,8-difluoro-1-((2S)-3-methyl-2-{[(methyloxy)carbonyl]amino}butanoyl)-1-azaspiro[4.5]dec-2-yl]-1H-imidazol-4-yl}-4-biphenylyl)-1H-imidazol-2-yl]-1-pyrrolidinyl}carbonyl)-2-methylpropyl]carbamate] | 0.0158 | 1.58
CC[C@H](NC(=O)OC)C(=O)N1C(c2nc(-c3ccc(-c4ccc(-c5cnc([C@@H]6CCCN6C(=O)[C@@H](NC(=O)OC)C(C)C)[nH]5)cc4)cc3)c[nH]2)CCC12CCC(F)(F)CC2 (stereo partly drawn) [Example 33, methyl [(1S)-1-({8,8-difluoro-2-[4-(4′-{2-[(2S)-1-((2S)-3-methyl-2-{[(methyloxy)carbonyl]amino}butanoyl)-2-pyrrolidinyl]-1H-imidazol-4-yl}-4-biphenylyl)-1H-imidazol-2-yl]-1-azaspiro[4.5]dec-1-yl}carbonyl)propyl]carbamate] | 0.0158 | 1
COC(=O)N[C@@H](C)C(=O)N1C(c2nc(-c3ccc(-c4ccc(-c5cnc([C@@H]6CCCN6C(=O)[C@@H](NC(=O)OC)C(C)C)[nH]5)cc4)cc3)c[nH]2)CCC12CCC(F)(F)CC2 (stereo partly drawn) [Example 34, methyl ((1S)-2-{8,8-difluoro-2-[4-(4′-{2-[(2S)-1-((2S)-3-methyl-2-{[(methyloxy)carbonyl]amino}butanoyl)-2-pyrrolidinyl]-1H-imidazol-4-yl}-4-biphenylyl)-1H-imidazol-2-yl]-1-azaspiro[4.5]dec-1-yl}-1-methyl-2-oxoethyl)carbamate] | 0.01 | 0.631
COC(=O)N[C@@H](CC(C)C)C(=O)N1C(c2nc(-c3ccc(-c4ccc(-c5cnc([C@@H]6CCCN6C(=O)[C@@H](NC(=O)OC)C(C)C)[nH]5)cc4)cc3)c[nH]2)CCC12CCC(F)(F)CC2 (stereo partly drawn) [Example 35, methyl [(1S)-1-({8,8-difluoro-2-[4-(4′-{2-[(2S)-1-((2S)-3-methyl-2-{[(methyloxy)carbonyl]amino}butanoyl)-2-pyrrolidinyl]-1H-imidazol-4-yl}-4-biphenylyl)-1H-imidazol-2-yl]-1-azaspiro[4.5]dec-1-yl}carbonyl)-3-methylbutyl]carbamate] | 0.0126 | 2
